According to ChEMBL document CHEMBL1201862, “PubChem BioAssay data set” (2004):
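48-hour exposure; five concentrations; linearly interpolated endpoints. GI50: concentration for 50% inhibition of growth.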 The source made the active and inactive calls. Cut-off read from the data, not from the text of the source: active = GI50 up to about 1.1 µM and inactive = higher.

Experiments:
Assay in all cases: DTP human tumour cell line panel, 48 h
PC-3 = tested on: PC-3
IGROV-1 = tested on: IGROV-1
NCI/ADR-RES = tested on: NCI/ADR-RES
NCI-H522 = tested on: NCI-H522
SNB-75 = tested on: SNB-75
HT-29 = tested on: HT-29
HCC 2998 = tested on: HCC 2998
MDA-N = tested on: MDA-N
M14 = tested on: M14
Malme-3M = tested on: Malme-3M
TK-10 = tested on: TK-10
NCI-H23 = tested on: NCI-H23
KM12 = tested on: KM12
SK-MEL-5 = tested on: SK-MEL-5
HL-60 = tested on: HL-60
T47D = tested on: T47D
ACHN = tested on: ACHN
MDA-MB-231 = tested on: MDA-MB-231
OVCAR-3 = tested on: OVCAR-3
SN12C = tested on: SN12C

SMILES | GI50 (PC-3) | GI50 (IGROV-1) | GI50 (NCI/ADR-RES) | GI50 (NCI-H522) | GI50 (SNB-75) | GI50 (HT-29) | GI50 (HCC 2998) | GI50 (MDA-N) | GI50 (M14) | GI50 (Malme-3M) | GI50 (TK-10) | GI50 (NCI-H23) | GI50 (KM12) | GI50 (SK-MEL-5) | GI50 (HL-60) | GI50 (T47D) | GI50 (ACHN) | GI50 (MDA-MB-231) | GI50 (OVCAR-3) | GI50 (SN12C)
Cc1nnc(CC#N)n1NC(=O)CC#N | > 100 µM (inactive) | > 100 µM (inactive) | > 100 µM (inactive) | > 100 µM (inactive) | > 100 µM (inactive) | > 100 µM (inactive) | > 100 µM (inactive) | > 100 µM (inactive) | > 100 µM (inactive) | > 100 µM (inactive) | > 100 µM (inactive) | > 100 µM (inactive) | > 100 µM (inactive) | > 100 µM (inactive) | > 100 µM (inactive) | > 100 µM (inactive) | > 100 µM (inactive) | > 100 µM (inactive) | > 100 µM (inactive) | > 100 µM (inactive)
CCCC(=O)Nc1cc(/C=C/C(=O)N2CC(CCl)c3c2cc(O)c2[nH]cc(C)c32)n(C)c1 (stereo not drawn) | < 2.5e-05 µM (active) | < 2.5e-05 µM (active) | 9.64e-05 µM (active) | < 2.5e-05 µM (active) | < 2.5e-05 µM (active) | < 2.5e-05 µM (active) | < 2.5e-05 µM (active) | < 2.5e-05 µM (active) | < 2.5e-05 µM (active) | < 2.5e-05 µM (active) | < 2.5e-05 µM (active) | < 2.5e-05 µM (active) | < 2.5e-05 µM (active) | < 2.5e-05 µM (active) | < 2.5e-05 µM (active) | < 2.5e-05 µM (active) | < 2.5e-05 µM (active) | < 2.5e-05 µM (active) | < 2.5e-05 µM (active) | < 2.5e-05 µM (active)
COc1ccc(/N=C/C=C/Nc2ccc(OC)cc2)cc1 | 12 µM (inactive) | 11.6 µM (inactive) | 6.95 µM (inactive) | 5.42 µM (inactive) | 16.9 µM (inactive) | 2.88 µM (inactive) | 8.45 µM (inactive) | 4.78 µM (inactive) | 11 µM (inactive) | 11.4 µM (inactive) | 11.8 µM (inactive) | 19.6 µM (inactive) | 4.54 µM (inactive) | 4.66 µM (inactive) | 2.87 µM (inactive) | 15 µM (inactive) | 15.6 µM (inactive) | 2.38 µM (inactive) | 1.84 µM (inactive) | 3.9 µM (inactive)
Oc1cc(O)c2c(c1)OC(c1ccc(O)c(O)c1)C(OC1(c3cc(O)c(O)c(O)c3)Oc3cc(O)cc(O)c3C(O)C1O)C2 (stereo not drawn) | 49.7 µM (inactive) | 30.7 µM (inactive) | 30.2 µM (inactive) | 21.4 µM (inactive) | 26.4 µM (inactive) | 18.1 µM (inactive) | 62.8 µM (inactive) | 20.3 µM (inactive) | 24.7 µM (inactive) | 87.9 µM (inactive) | > 100 µM (inactive) | 20.9 µM (inactive) | 26.1 µM (inactive) | 18.3 µM (inactive) | 21.7 µM (inactive) | 37.6 µM (inactive) | 38.4 µM (inactive) | 19.7 µM (inactive) | 35.6 µM (inactive) | 20.8 µM (inactive)
CC/C(Cl)=N\OC(=O)Nc1ccc(F)c(Cl)c1 | 16 µM (inactive) | 16.3 µM (inactive) | 19.5 µM (inactive) | 1.87 µM (inactive) | 12.2 µM (inactive) | 24 µM (inactive) | 18.7 µM (inactive) | 18.2 µM (inactive) | 2.38 µM (inactive) | 4.66 µM (inactive) | 17.5 µM (inactive) | 21.2 µM (inactive) | 17.2 µM (inactive) | 15.6 µM (inactive) | 1.83 µM (inactive) | 7.89 µM (inactive) | 13.8 µM (inactive) | 20 µM (inactive) | 2.59 µM (inactive) | 18 µM (inactive)
O=C1CS(=O)(=O)C(c2cccc(Oc3ccccc3)c2)N1C1CC1 (stereo not drawn) | 25.8 µM (inactive) |  | 28.1 µM (inactive) | 38.7 µM (inactive) | 24.8 µM (inactive) | 32.7 µM (inactive) | 44 µM (inactive) | 26.7 µM (inactive) | 41.1 µM (inactive) | > 100 µM (inactive) | 44.7 µM (inactive) | 28 µM (inactive) | 31.4 µM (inactive) | 18.9 µM (inactive) | 30.8 µM (inactive) | 35 µM (inactive) | 31.2 µM (inactive) | 75.2 µM (inactive) | 33 µM (inactive) | 46.8 µM (inactive)
CCc1nc(N)nc(N)c1-c1ccc(Cc2ccccc2)c([N+](=O)[O-])c1 | < 0.0353 µM (active) | 0.0702 µM (active) | 0.0475 µM (active) | 0.16 µM (active) | 23.3 µM (inactive) | < 0.01 µM (active) | 0.151 µM (active) | < 0.046 µM (active) | 0.0144 µM (active) |  | 29.5 µM (inactive) | 0.0171 µM (active) | 0.0762 µM (active) | < 0.01 µM (active) | < 0.01 µM (active) | 6.95 µM (inactive) | < 0.01 µM (active) | 38.3 µM (inactive) | 0.873 µM (active) | 0.247 µM (active)
